The source of these data is publication PMC6222715, “Squalene Cyclases and Cycloartenol Synthases from Polystichum polyblepharum and Six Allied Ferns” (Molecules : A Journal of Synthetic Chemistry and Natural …, 2018).

The assay deals with PPH (Polystichum polyblepharum, UniProt A0A3G9ELI1). The assay can be described thus: product formation in yeast cells, GC. It is filed as cell-based. Conditions: endogenous squalene accumulated with terbinafine; in vivo; phosphate pH 7.0.
PPH, sequence (A0A3G9ELI1 1-685): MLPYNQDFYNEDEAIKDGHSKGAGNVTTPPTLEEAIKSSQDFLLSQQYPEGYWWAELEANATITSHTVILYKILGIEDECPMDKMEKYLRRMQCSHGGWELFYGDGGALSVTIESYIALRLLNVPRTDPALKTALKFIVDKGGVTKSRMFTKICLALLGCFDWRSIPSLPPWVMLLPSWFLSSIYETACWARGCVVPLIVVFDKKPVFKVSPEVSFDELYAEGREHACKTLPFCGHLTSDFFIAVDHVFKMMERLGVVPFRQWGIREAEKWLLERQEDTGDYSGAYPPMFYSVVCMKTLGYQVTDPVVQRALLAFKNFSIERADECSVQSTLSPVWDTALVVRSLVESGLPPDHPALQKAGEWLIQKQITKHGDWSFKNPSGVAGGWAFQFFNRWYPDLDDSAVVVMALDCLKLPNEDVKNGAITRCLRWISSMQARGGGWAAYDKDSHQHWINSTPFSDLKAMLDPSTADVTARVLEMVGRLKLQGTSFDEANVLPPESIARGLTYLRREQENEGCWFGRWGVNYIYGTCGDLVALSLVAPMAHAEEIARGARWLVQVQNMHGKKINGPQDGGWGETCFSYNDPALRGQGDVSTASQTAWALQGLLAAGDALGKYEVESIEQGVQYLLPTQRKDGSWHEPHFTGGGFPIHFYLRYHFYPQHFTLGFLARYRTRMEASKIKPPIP

On to `CC(C)=CCC/C(C)=C/CC/C(C)=C/CC/C=C(\C)CC/C=C(\C)CCC=C(C)C` [compound 1, squalene], for which the “product formation in yeast cells, GC” value is reported as “PPH could use the accumulated endogenous squalene as an in vivo substrate”.
